Measurements from patent US20210106601A1, “MANGIFERIN AS A PROTECTIVE AGENT AGAINST MITOCHONDRIAL DNA DAMAGE AND SKIN-CARE COMPOSITIONS COMPRISING SAME” (priority 2018, published 2021).
Values after ≈ are worked out from the molar mass of the structure shown. Values joined by “and” are separate entries in the source; they are usually repeats but may differ in a detail not shown here. Equal entries are not always repeated.

Columns and labels:
HDFn cells [1] = assay: Cell viability assay (MTS cell proliferation assay); assay type: cell-based; details: unfiltered extract, 50 to 50,000 μg/ml, 24 hours incubation
Experimental: Stock solutions of mangiferin were made by dissolving mangiferin extract in water, and diluting to the required concentration. The stock solutions were then added to HDFn cells at a range of concentrations from 50 μg/ml to 50,000 μg/ml, and incubated for 24 hours under standard culture conditions.

[2] = Solubility of mangiferin in deionised water; assay type: physicochemical
Experimental: In order to assess the solubility of mangiferin in aqueous solution, 0.18 g of mangiferin was added to 100 mls of deionised water. […] The solution was then Buchner filtered, and the mass of the undissolved material weighed. Solubility was calculated based on the difference between the initial mass of mangiferin and that of the undissolved material.

HDFn cells [3] = assay: mtDNA damage after UV irradiation (1 kb real-time qPCR assay); assay type: cell-based, human; details: UV 2 SED
Experimental: 1,000 μg/ml solutions of mangiferin extract were prepared as outlined in Example 1 above. 3 ml of the mangiferin solution was added to a 45 mm diameter quartz glass petri dish. Quartz was chosen as it is known to permit both UVA and UVB rays to pass through. The quartz glass dish was then placed on top of a slightly smaller dish containing the cultured HDFn cells. The cells were then irradiated through the quartz glass petri dish, using either a Cleo Performance (iSOLde, Germany) or Aramid B (Cosmedico, Germany) lamp at 2 standard erythemal doses (SED). […]
Following irradiation, total DNA was extracted and mtDNA damage analysed using a 1 kb real-time qPCR assay. mtDNA damage is expressed as a Ct value (where a 1 Ct difference is equivalent to a 2-fold difference in damage), and is based on the observation that damaged mtDNA takes longer to be amplified via qPCR. To find the acellular UV transmission of extracts, the dish containing the diluted extract was placed on top of a spectroradiometer and the amount of UV which passes through the dish was measured. All statistical differences were determined using one-way ANOVA with Dunnett's test to compare to a control column (0.05*, P<0.01**, P<0.001***). […]

UV absorbance scan = assay type: physicochemical; details: 1,000 μg/ml, quartz cell
Experimental: A UV absorbance scan was performed on mangiferin extract at a concentration of 1,000 μg/ml, and the results are shown in FIG. 6. The spectrometer was set up using a quartz cell with a 1.05 ms integration time (the minimum for the spectrometer) and the spectra was based on an average of 100 samples.
UV absorbance scans were performed on stock solutions of the mangiferin-complexes prepared in example 8 above and the results are shown in FIG. 7. The spectrometer was set up using a quartz cell with a 1.05 ms integration time (the minimum for the spectrometer) and the spectra was based on an average of 100 samples. The mangiferin-only solution required to be diluted to 25% of its original concentration to reach the point at which it no longer saturated the spectrometer, while mangiferin-complex solutions were diluted to 2.5%. However, good absorbance was then observed for all of the samples, with the characteristic peaks at ^˜320 nm and ^˜370 nm clearly visible.

SMILES: O=c1c2cc(O)c(O)cc2oc2cc(O)c(C3OC(CO)C(O)C(O)C3O)c(O)c12 (stereo not shown) [mangiferin, 1,3,6,7-tetrahydroxy-2-[3,4,5-trihydroxy-6-(hydroxymethyl)oxan-2-yl]xanthen-9-one]
- concentration up to which cell viability is seen (cell death above) (HDFn cells [1]): ~5,000 μg/ml
- solubility in water (in words) ([2]; even after stirring for 24 hours): very insoluble in water
- solubility at 4 h ([2]; thermodynamic from solid, deionised water, 40° C., 500 rpm, stirring time 4 hours): 43 µg/mL (≈ 102 µM)
- solubility at 24 h ([2]; thermodynamic from solid, deionised water, 40° C., 500 rpm, stirring time 24 hours): 139 µg/mL (≈ 329 µM)
- increase in mtDNA damage compared with foil-wrapped (non-irradiated) samples (HDFn cells [3]; 1,000 μg/ml solution in quartz dish above cells, water control 3.1 Cts): 1.6 Cts
- fold increase in mtDNA damage compared with foil-wrapped samples (HDFn cells [3]; 1,000 μg/ml, 1 Ct = 2-fold, water control approximately 8-fold): approximately 3 fold
- UV absorbance peaks (UV absorbance scan): ~320 nm and ~370 nm
